Results on nine molecules are retold here after ChEMBL document CHEMBL5465560, “Selectivity Literature for EUbOPEN Chemogenomic Library” (2024).

For experiment [1], the target named is T1, Ephrin type-A receptor 6 (Homo sapiens) (UniProt Q9UF33).
T1 sequence (whole entry): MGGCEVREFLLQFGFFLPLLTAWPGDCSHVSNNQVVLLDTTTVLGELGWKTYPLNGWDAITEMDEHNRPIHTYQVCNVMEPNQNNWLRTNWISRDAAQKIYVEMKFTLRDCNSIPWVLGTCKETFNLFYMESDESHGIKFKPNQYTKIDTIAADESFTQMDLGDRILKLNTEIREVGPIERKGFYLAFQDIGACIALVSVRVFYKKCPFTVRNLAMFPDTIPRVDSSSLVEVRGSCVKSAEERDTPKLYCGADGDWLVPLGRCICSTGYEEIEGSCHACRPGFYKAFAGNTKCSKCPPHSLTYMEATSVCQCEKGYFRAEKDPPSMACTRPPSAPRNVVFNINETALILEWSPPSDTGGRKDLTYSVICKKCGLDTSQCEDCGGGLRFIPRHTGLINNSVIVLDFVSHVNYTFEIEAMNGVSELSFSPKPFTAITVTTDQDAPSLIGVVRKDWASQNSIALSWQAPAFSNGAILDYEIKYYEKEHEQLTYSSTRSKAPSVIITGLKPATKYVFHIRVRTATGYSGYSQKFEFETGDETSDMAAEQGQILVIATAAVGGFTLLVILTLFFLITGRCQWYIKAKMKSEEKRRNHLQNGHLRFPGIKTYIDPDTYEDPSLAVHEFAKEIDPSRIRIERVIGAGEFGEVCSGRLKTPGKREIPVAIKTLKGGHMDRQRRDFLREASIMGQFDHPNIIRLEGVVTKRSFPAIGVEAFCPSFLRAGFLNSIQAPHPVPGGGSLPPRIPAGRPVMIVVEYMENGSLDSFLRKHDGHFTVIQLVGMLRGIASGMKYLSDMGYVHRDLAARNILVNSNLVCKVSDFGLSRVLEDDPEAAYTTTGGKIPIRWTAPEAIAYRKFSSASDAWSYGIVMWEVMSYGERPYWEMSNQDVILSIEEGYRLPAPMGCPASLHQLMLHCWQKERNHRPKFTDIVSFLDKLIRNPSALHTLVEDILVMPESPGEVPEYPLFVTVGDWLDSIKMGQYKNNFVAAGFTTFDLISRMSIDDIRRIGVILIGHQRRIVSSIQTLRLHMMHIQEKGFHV
The experiment is described as follows: Selectivity interaction (LanthaScreen Eu Kinase Binding Assay) EUB0001632a EPHA6. The settings on record: at 10 µM.

Experiment [2] has as its target Tyrosine-protein kinase Fes/Fps (Homo sapiens) (UniProt P07332). In words: Selectivity interaction (Ambit KINOMEscan and KiNATiv profiling in Jurkat cells) EUB0000090b FES. Format: cell-based. The settings on record: at 1 µM.
Experiment [3] deals with Mitogen-activated protein kinase 9 (Homo sapiens, UniProt P45984). In words: Selectivity interaction (Ambit KINOMEscan and KiNATiv profiling in Jurkat cells) EUB0000090b MAPK9. It counts as cell-based. The conditions noted are these: at 1 µM.
Chain of Mitogen-activated protein kinase 9 (P45984 whole entry, looked up): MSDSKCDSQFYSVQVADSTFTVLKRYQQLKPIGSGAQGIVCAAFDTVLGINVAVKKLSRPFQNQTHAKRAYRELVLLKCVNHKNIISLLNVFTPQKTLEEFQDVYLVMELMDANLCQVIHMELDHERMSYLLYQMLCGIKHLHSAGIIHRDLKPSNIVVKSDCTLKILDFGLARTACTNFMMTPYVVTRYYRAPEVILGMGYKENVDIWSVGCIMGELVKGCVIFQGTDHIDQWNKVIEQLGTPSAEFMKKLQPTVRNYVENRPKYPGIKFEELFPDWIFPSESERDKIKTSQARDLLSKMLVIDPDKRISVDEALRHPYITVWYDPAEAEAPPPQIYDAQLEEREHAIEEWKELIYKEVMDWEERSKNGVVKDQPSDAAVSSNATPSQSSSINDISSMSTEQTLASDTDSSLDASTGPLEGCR
The target in experiment [4] is Death-associated protein kinase 1 (Homo sapiens, UniProt P53355). In words: Selectivity interaction (KinomeScan (DiscoverX)) EUB0000607a DAPK1. The settings on record: at 10 µM.
Experiment [5] deals with Serine/threonine-protein kinase WNK3 (Homo sapiens) (UniProt Q9BYP7). In words: Selectivity interaction (KinomeScan (DiscoverX)) EUB0000666a WNK3. The settings on record: at 10 µM.
Chain of Serine/threonine-protein kinase WNK3 (Homo sapiens) (Q9BYP7 whole entry): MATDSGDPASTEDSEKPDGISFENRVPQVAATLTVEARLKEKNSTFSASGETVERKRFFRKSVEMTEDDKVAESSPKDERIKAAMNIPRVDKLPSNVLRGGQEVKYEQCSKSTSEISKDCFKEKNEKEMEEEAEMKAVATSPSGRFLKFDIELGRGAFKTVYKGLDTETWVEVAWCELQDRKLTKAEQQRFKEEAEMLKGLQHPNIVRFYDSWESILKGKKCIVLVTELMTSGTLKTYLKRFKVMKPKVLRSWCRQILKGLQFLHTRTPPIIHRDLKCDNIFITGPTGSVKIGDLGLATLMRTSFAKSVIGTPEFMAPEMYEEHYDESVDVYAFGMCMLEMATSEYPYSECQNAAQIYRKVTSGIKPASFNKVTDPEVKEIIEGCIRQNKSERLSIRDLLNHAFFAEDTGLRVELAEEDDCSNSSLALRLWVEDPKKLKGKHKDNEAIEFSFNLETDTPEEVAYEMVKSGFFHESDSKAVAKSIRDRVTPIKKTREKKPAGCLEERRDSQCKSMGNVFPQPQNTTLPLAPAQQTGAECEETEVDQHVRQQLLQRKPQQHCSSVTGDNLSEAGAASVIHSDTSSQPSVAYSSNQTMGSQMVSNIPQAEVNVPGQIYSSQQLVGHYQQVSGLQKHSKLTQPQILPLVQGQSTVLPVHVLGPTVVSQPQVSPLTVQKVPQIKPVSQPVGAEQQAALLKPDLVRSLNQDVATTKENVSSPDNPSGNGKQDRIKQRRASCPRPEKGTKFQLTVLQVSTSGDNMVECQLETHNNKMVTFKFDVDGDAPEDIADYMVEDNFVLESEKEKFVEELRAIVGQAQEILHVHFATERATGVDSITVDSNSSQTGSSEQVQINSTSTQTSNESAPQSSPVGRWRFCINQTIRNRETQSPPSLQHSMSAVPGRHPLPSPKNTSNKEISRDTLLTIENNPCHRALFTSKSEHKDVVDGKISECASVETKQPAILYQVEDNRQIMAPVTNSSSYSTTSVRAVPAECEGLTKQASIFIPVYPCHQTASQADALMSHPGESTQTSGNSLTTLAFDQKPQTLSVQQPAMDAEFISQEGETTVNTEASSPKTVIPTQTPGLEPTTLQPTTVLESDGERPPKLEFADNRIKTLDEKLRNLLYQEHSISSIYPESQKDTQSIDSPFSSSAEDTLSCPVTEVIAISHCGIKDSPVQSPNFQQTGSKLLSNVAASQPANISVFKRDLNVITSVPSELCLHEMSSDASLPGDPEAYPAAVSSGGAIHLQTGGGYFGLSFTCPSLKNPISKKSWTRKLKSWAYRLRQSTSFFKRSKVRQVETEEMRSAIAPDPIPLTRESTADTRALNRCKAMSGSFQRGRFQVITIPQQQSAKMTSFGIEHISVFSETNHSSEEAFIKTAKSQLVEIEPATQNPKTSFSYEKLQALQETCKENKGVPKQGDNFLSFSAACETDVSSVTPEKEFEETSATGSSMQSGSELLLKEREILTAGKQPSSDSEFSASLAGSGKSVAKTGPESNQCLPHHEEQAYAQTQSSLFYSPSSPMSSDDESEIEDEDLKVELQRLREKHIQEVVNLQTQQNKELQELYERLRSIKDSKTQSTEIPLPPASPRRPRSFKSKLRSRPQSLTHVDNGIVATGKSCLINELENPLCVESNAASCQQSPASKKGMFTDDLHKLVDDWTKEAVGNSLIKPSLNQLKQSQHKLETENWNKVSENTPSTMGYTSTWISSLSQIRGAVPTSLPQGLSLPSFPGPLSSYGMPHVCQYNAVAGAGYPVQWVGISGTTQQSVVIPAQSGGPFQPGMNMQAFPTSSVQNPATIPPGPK
Experiment [6] addresses SRSF protein kinase 1 (Homo sapiens, UniProt Q96SB4). The experiment is described as follows: Selectivity interaction (Kinase panel (DSF assay)) EUB0001558a SRPK1.
The target in experiment [7] is Casein kinase I isoform alpha (Homo sapiens, UniProt P48729). In words: Selectivity interaction (ActivX KiNativ screen (ex vivo kinase selectivity in human PBMCs)) EUB0001619a CSNK1A1. It counts as cell-based. The conditions noted are these: PBMC, at 1 µM.
Chain of Casein kinase I isoform alpha (P48729 2-337 limits assumed): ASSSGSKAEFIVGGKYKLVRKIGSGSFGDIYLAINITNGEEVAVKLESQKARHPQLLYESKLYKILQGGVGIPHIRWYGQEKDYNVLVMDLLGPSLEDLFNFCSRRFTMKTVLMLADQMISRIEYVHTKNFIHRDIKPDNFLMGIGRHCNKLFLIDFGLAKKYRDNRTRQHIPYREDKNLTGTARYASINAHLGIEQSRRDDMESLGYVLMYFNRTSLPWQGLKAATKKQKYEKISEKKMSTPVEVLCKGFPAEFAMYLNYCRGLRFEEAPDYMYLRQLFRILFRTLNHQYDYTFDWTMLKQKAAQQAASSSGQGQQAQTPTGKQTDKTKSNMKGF
The target of experiment [8] is Mitogen-activated protein kinase kinase kinase 1 (Homo sapiens, UniProt Q13233). In words: Selectivity interaction (KinomeScan (DiscoverX)) EUB0001619a MAP3K1. The conditions noted are these: at 1 µM.
Experiment [9] addresses T2, Discoidin domain-containing receptor 2 (Homo sapiens) (UniProt Q16832).
T2 sequence (whole entry): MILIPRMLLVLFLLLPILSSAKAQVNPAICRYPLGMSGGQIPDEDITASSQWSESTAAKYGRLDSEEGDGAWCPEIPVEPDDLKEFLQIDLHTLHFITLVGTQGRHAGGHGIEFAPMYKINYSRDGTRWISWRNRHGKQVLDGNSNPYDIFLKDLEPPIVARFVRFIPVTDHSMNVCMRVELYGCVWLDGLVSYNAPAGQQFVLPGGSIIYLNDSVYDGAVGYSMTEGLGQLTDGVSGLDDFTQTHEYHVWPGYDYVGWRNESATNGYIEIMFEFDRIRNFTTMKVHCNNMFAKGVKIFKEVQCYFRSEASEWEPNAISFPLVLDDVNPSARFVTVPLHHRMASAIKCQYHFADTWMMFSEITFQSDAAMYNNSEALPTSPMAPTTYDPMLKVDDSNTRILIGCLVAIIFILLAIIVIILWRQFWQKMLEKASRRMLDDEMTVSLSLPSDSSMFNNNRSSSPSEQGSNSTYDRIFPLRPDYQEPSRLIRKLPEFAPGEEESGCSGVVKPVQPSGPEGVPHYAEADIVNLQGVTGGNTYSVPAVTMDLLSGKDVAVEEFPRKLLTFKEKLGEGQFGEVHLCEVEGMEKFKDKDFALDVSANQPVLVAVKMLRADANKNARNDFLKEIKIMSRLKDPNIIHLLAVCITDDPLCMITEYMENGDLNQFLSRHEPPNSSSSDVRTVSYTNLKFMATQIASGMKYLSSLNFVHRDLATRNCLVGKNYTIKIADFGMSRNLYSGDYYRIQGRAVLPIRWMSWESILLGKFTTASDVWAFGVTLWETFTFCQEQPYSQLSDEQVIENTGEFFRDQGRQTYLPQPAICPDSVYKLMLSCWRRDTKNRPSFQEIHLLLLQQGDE
In words: Selectivity interaction (Kinase panel (Invitrogen)) EUB0000639a DDR2. The settings on record: at 200 nM.

Experiment [10] deals with Protein kinase C theta type (Homo sapiens, UniProt Q04759). The experiment is described as follows: Selectivity interaction (Kinase panel (Invitrogen)) EUB0000639a PRKCQ. The settings on record: at 200 nM.
Experiment [11] addresses Myosin light chain kinase 2, skeletal/cardiac muscle (Homo sapiens) (UniProt Q9H1R3). The experiment is described as follows: Selectivity interaction (KinomeScan (DiscoverX)) EUB0000695a MYLK2. The conditions noted are these: at 100 nM.
For experiment [12], the target named is Mitogen-activated protein kinase 4 (Homo sapiens) (UniProt P31152). In words: Selectivity interaction (KinomeScan (DiscoverX)) EUB0000695a MAPK4. The conditions noted are these: at 100 nM.
Chain of Mitogen-activated protein kinase 4 (Homo sapiens) (P31152 whole entry): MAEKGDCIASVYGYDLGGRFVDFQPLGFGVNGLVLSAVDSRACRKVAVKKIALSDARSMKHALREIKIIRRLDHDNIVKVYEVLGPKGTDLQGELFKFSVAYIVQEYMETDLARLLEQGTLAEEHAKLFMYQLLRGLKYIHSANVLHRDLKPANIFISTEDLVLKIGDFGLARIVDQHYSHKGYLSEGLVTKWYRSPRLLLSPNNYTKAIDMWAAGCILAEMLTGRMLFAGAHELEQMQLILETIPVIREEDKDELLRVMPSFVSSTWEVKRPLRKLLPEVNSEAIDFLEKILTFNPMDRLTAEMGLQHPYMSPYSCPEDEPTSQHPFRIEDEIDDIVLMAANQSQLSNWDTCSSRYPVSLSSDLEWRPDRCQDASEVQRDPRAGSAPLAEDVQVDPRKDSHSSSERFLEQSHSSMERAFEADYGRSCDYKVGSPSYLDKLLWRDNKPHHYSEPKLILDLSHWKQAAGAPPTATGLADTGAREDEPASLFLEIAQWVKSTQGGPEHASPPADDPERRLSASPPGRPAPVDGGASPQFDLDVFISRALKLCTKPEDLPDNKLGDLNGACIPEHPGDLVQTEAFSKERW
In experiment [13] the target is Protein kinase C delta type (Homo sapiens) (UniProt Q05655). In words: Selectivity interaction (Upstate Kinase Profiler service (Millipore)) EUB0000056c PRKCD. The conditions noted are these: at 1 µM.
Chain of Protein kinase C delta type (Homo sapiens) (Q05655 whole entry, looked up): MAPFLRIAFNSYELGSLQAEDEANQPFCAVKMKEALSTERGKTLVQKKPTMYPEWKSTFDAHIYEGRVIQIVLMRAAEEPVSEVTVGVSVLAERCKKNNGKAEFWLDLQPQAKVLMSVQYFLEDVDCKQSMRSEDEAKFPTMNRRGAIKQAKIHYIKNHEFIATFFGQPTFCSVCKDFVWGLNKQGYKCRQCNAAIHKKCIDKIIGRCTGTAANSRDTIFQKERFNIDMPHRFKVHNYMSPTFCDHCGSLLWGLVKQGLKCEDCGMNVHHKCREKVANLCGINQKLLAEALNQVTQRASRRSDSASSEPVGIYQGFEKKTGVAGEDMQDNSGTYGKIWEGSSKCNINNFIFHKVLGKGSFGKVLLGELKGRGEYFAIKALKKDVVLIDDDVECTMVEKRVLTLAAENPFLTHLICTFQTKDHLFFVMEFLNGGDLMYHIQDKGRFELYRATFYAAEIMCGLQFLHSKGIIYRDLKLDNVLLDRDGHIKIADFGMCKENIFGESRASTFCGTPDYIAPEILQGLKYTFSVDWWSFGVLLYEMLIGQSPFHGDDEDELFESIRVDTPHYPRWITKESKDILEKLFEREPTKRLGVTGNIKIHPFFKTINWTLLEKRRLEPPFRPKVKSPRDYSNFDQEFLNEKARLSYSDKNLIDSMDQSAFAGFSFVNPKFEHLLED

Chain of Myosin light chain kinase 2, skeletal/cardiac muscle (Homo sapiens) (Q9H1R3 whole entry): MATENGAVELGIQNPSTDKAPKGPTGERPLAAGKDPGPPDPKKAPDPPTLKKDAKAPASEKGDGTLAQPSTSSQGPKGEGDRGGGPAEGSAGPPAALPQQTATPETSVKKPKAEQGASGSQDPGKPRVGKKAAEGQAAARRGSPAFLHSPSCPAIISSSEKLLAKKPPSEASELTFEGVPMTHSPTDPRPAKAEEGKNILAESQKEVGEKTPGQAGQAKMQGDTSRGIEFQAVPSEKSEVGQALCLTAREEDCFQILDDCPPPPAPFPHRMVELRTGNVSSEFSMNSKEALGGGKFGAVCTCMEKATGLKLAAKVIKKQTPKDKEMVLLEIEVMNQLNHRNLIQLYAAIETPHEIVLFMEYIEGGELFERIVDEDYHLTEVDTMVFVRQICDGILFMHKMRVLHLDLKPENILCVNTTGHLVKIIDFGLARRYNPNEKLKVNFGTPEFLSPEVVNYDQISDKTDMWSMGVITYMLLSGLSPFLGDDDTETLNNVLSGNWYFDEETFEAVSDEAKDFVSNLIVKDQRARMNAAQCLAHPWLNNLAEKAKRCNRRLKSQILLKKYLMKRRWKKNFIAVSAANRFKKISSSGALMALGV
Chain of SRSF protein kinase 1 (Q96SB4 whole entry, canonical isoform): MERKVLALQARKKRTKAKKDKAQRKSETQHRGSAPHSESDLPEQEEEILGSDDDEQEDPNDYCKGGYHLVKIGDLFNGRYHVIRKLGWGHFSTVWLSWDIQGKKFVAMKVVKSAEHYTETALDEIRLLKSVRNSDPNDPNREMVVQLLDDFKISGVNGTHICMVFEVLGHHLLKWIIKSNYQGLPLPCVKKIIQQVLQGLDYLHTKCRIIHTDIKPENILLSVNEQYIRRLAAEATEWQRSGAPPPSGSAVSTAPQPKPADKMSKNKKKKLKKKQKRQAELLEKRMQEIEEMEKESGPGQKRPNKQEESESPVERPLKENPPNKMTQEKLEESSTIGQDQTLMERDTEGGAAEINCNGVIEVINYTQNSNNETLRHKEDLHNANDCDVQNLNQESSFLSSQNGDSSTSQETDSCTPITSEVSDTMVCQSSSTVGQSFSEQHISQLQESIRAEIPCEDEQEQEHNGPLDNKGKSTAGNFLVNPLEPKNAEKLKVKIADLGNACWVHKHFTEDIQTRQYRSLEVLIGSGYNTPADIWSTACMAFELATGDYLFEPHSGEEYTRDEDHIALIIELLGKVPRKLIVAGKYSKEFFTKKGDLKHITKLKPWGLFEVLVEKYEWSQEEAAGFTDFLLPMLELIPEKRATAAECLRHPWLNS

In the case of `Cn1cc(-n2cnc3c(NCc4nc5cc(Cl)c(Cl)cc5[nH]4)nc(N4CCOCC4)nc32)cn1`, the % of inhibition in experiment [1] is -24%. As to `CN(C)C/C=C/C(=O)Nc1ccc(C(=O)N2CCCC(Nc3ncc(Cl)c(-c4c[nH]c5ccccc45)n3)C2)cc1` (stereo not drawn), the % of control is 68% in experiment [2] and 0.55% in [3]. With `CNC(=O)Nc1ccc(-c2nc(N3CC4CCC(C3)O4)c3cnn(C4CCC5(CC4)OCCO5)c3n2)cc1`, the % of control in experiment [4] came to 12%.

`O=C(NOC[C@H](O)CO)c1ccc(F)c(F)c1Nc1ccc(I)cc1F` came in with a % of control in experiment [5] of 100%. `CC(C)(O)[C@H](F)CN1Cc2cc(NC(=O)c3cnn4cccnc34)c(N3CCOCC3)cc2C1=O` displayed a dTM in experiment [6] of 1.1 K. For the molecule `N#Cc1cccc(-c2c[nH]c3ncnc(N4CCOCC4)c23)c1`, the % of inhibition in [7] is -7%. This molecule also came in with a % of control in experiment [8] of 82%. Take `CC[C@@H]1[C@H](F)C(=O)N[C@@H]1COc1nccc2cc(C(N)=O)c(OC)cc12` [ZIMLOVISERTIB]: the % of inhibition in experiment [9] is -2.26%; in experiment [10], 3.66%. As for `Cc1cc(F)c(C(=O)Nc2cccc(-c3nncn3C(C)C)n2)cc1-n1cnc(C2CC2)c1`, the % of control in [11] and in experiment [12] was 100% each time.

Consider `Cc1ccc(-c2ccc3c(ccc4sc5c(c43)NC[C@@H](C)NC5=O)n2)cn1`, for which, in experiment [13], the % of inhibition is 33%.
